Measured values: publication PMC9404989, “Design and Evaluation of Short Bovine Lactoferrin-Derived Antimicrobial Peptides against Multidrug-Resistant Enterococcus faecium” (Antibiotics, 2022)
“Also recorded” adds a separate entry of the source. No end group written: not given here.

Assays:
[1] = system: S. aureus MW2; test: microbe, parasite or virus in culture; assay type: cell-based, Staphylococcus aureus; conditions: MW2, 18 h
Description: (§1) To determine the MICs of peptides, we used the broth microdilution method described by the Clinical and Laboratory Standards Institute. We made serial dilutions of 10× concentration (10 µL) for each peptide in duplicates in 96-well plates (Cat No. 3595, Corning, New York, NY, USA). We added 90 µL of logarithmic-phase bacteria at 5 × 10^5 CFU/mL (in BHI media) to the peptides and then incubated the plates at 37 °C for 18 h. We measured the OD600 absorbance readings using the Spectra Max i3x spectrophotometer (Molecular Devices, San Jose, CA, USA) and determined the MIC as the peptide concentration that inhibits the growth of bacteria.

[2] = system: E. faecium E007 established biofilms; assay type: cell-based, Enterococcus faecium; conditions: for concentration killing 50% of live bacteria cells in established biofilms: strain E007, 24 h established biofilms, XTT; for established biomass disrupted: strain E007, at 32 µg/mL; for MBEC50: strain E007, biomass by CV
[3] = system: E. faecium strain C68 persister cells; test: Persister cell time-kill assay; assay type: cell-based, Enterococcus faecium
Description: For the generation of antibiotic-induced persister cells, we followed an established protocol. In brief, 25 mL of E. faecium strain C68 culture was grown to the stationary phase and then treated with gentamicin at 400 μg/mL for 5 h. We then disposed of the antibiotic-containing media and regrew the bacteria for another 18 h in fresh media. To produce stable persister cells, we repeated the cycle of antibiotic exposure and regrowth five times. The bacteria culture was then washed with the same volume of phosphate-buffered saline (PBS) 3× times and adjusted to 1 × 10^7 CFU/mL in PBS. For killing kinetics of the persister cells, we added 1 mL of the cell suspension to the wells of a 2 mL deep well assay block (Cat No. 3960, Corning, NY, USA) containing 10× MICs of 5L and 6L and incubated them at 37 °C, with shaking at 225 rpm. At specific times (0, 15, 30, 60, and 120 min), we collected 20 μL samples, diluted them serially, and then plated them on tryptic soy agar (TSA) (BD Difco, Franklin Lakes, NJ, USA) plates for 18 h at 37 °C for colony counting. We performed the experiments in duplicate. As a comparison, we prepared the exponential cells of E. faecium strain C68 in PBS and analyzed their killing kinetics in the same manner as described for persister cells.

[4] = system: E. faecium strain C68; test: ATP release assay (luciferase); assay type: cell-based, Enterococcus faecium; conditions: 32 µg/mL, 37 °C, 30 min
Description: To determine the ATP leakage potential of the peptides, we employed a luciferase-based assay detailed in [32]. In brief, we washed the exponential phase of E. faecium strain C68 bacteria three times with PBS (pH 7.4) and adjusted it to OD600 = 0.4 in PBS. Following treatment of the bacteria with 32 µg/mL of 5L and 6L peptides at 37 °C for 30 min, we centrifuged the cells at 14,000 rpm for 5 min. We transferred 50 µL of the supernatant of each sample to each well of black, clear-bottom, 96-well plates (Cat No. 3904, Corning, New York, NY, USA) containing 50 µL of BacTiter-Glo reagent (Promega, Madison, WI, USA) and measured plate luminescence after 5 min of incubation at room temperature in the dark with a SpectraMax i3x reader (Molecular Devices, San Jose, CA, USA).

[5] = system: E. faecium strain C68 on porcine skin; test: Ex vivo porcine skin infection assay; design: species or system Enterococcus faecium; conditions: 1 × 10^6 CFU, 4 h treatment
From the text: We evaluated the efficacy of designed lactoferrin AMPs in an ex vivo porcine skin model previously described with minor modifications. We first cleaned the shaved porcine skin (Fisher Scientific, Hampton, NH, USA) with 70% ethanol and then water, and glued polyethylene tubing (5 mm) (Nalgene VWR 228-0170, Radnor, PA, USA) to the skin samples with cyanoacrylate glue (Fisher Scientific, Hampton, NH, USA). Using disposable razors, we cut each piece of skin glued to the tube and inserted it into a 12-well tissue culture plate (Falcon, Cat No. 353182). We infected each skin with 1 × 10^6 CFU of exponential or persister E. faecium strain C68 cells in a total volume of 10 µL. Following an incubation of 1 h at 37 °C, we treated the skin with 50 µL with 5L and 6L at concentrations of 10× or 1× MIC. After an additional 4 h of incubation at 37 °C, we washed each tubing well with 250 µL of PBS (pH 7.4) containing 0.05% Triton X-100 to remove bacteria. After serially diluting the bacterial sample, we counted their CFUs.

[6] = system: drug-resistant E. faecium clinical isolates; assay type: cell-based, Enterococcus faecium; conditions: strains D14, D24, D25, D29, C68 and WC176
Description: as §1

[7] = system: E. faecium strain C68 established biofilms; test: Confocal microscopy of peptide-treated established biofilms (LIVE/DEAD); assay type: cell-based, Enterococcus faecium; conditions: 10× MIC, 24 h established biofilms, 24 h treatment
Description: We prepared exponential cultures of E. faecium strain C68 (adjusted to 1 × 10^6 CFU/mL) in BHI media (supplemented with 0.2% glucose) from overnight grown cultures. To establish biofilms, we added 1 mL of the bacterial culture to the chambers of cuvettes (borosilicate cover glass, Nunc Cat. No. 155380) and maintained them at 37 °C for 24 h under static conditions. We carefully removed the media from the wells after incubation and then washed the wells with PBS (Gibco, MD, USA) to remove loosely attached planktonic cells. We treated the established biofilms in each well with 100 µL of serially diluted 10× MIC peptide solution (5L and 6L) followed by the addition of 900 μL of BHI media (supplemented with 0.2% glucose) and incubated the cuvettes for an additional 24 h at 37 °C. After incubation, we washed the cuvettes carefully with PBS (Gibco, MD, USA) to remove the planktonic cells and stained the biofilms with 10 µL of LIVE/DEAD kit (Molecular Probes, Life Technologies, Eugene, OR, USA) according to the manufacturer’s instructions. Finally, we visualized the biofilms using a confocal microscope (Zeiss 880) and processed the data via Zen 2010 software (Carl Zeiss, Jena, Germany).

Row | Substance | MIC S. aureus MW2 [1] [µg/mL] | concentration killing 50% of live bacteria cells in established biofilms [2] [µg/mL] | established biomass disrupted [2] [%] | MBEC50 [2] [µg/mL] | reduction of viable persister cells ([3]; 10× MIC (40 µg/mL), 1 × 10^7 CFU, PBS, within 120 min) [logs] | ATP leakage (luminescence) [4] | bacterial load reduction, exponential cells, 1× MIC [5] | bacterial load reduction, persister cells, 1× MIC [5] [log] | bacterial load, exponential cells, 10× MIC [5] | bacterial load, persister cells, 10× MIC [5] | MIC range against clinical isolates of E. faecium [6] [µg/mL] | killing of bacteria inside biofilms (confocal, LIVE/DEAD) [7] | time to eliminate all persister cells ([3]; 40 µg/mL, 1 × 10^7 persister cells) [min]
1 | RRWLWLRRWLWR-NH2 [Peptide 5L] | > 32 | 8 | 75 | 10 | 3 | increased luminescence levels | 1 log | 1 | effectively eliminated almost all exponential cells | effectively eliminated all; also recorded: completely eliminated persister cells | 4 to 16 | killed most of the bacteria inside the biofilms | 
2 | RRWLWRLRWLWR-NH2 [Peptide 6L] | 32 | 8 | 75 | 8 |  | increased luminescence levels | 1.2 logs | 1 | effectively eliminated almost all exponential cells | completely eliminated persister cells | 4 to 16 | killed most of the bacteria inside the biofilms | ≤ 60
